Where “and” joins values, the source holds several entries; their conditions need not be identical. Identical values can stand only once.
Tested on: tissue mRNA levels
Assay: Quantitative PCR of tissue gene expression in treated mice
Type: in vivo, mouse
Parameters: key to mRNA levels Scap / mRNA levels Insig1 / mRNA levels Ldlr / mRNA levels Mttp / mRNA levels Atgl / mRNA levels Tnfaip2 / mRNA levels Rxra / mRNA levels Srebf1 / mRNA levels Ucp2: mRNA level normalized to ribosomal L32 mRNA (internal control)
Conditions: for relative mRNA levels SREBP1a, group mean (Mean 2) / relative mRNA levels SREBP2, group mean (Mean 2) / relative mRNA levels SREBP1c, group mean (Mean 2) / relative mRNA levels Srebf-1a / relative mRNA levels Srebf-1c / relative mRNA levels Srebf-2: Figure 6a; for relative mRNA levels SREBP1a, group mean (Mean 2) / relative mRNA levels SREBP2, group mean (Mean 2) / relative mRNA levels SREBP1c, group mean (Mean 2): N=6; for relative mRNA levels SREBP1a, group mean (Mean 2): VEH mean 0.9485; for relative mRNA levels SREBP2, group mean (Mean 2): VEH mean 1.001; for relative mRNA levels SREBP1c, group mean (Mean 2): VEH mean 1.004; for relative mRNA levels Srebf-1a / relative mRNA levels Srebf-1c / relative mRNA levels Srebf-2: relative to VEH
Procedure: Total RNA from cells and tissues was extracted by Trizol (Invitrogen) and reverse-transcribed into cDNA using the prime script RT reagent kit with gDNA eraser (Takara). The mRNA levels were determined using the SYBR-green PCR kit (Takara) with ABIPRISM 7900HT Sequence detector (ABI) according to the manufacturer’s protocol. The quantitative qPCR primers used in this work are listed in Supplementary Table 1. Ribosomal L32 mRNA levels were used as an internal control.

[1] = DIO mice, i.p. 20 mg/kg, 5 weeks
[2] = APC 10mg/kg, individual animals
[3] = APC 20mg/kg, individual animals
[4] = Figure 6c, liver of DIO mice, individual animals
[5] = Figure 6e, BAT genes in DIO, individual animals
[6] = Figure 6e, group mean of APC-treated mice
[7] = Figure 6f, CRTC2KO mice, oral APC
[8] = Figure 6f, CRTC2KO mice, oral APC, group mean, N 6

CC(C)=CCc1cc(C=CC(=O)O)cc(CC=C(C)C)c1O [APC, 3,5-diprenyl-4-hydroxycinnamic acid]
mRNA levels of CREB/CRTC2 regulated genes in muscle, brain, spleen, kidney, small intestine, pancreas (C57 WT mice, one oral dose 20 mg/kg): did not significantly affect
Mean Diff. (Veh. vs. treated; head of the quantity not shown, section just before Figure 7h) (CRTC2KO mice, Met 200mg/kg or APC-20): -0.1036
hepatic mRNA levels of G6pc, Pck1 and Pgc-1α (DIO and db/db mice, i.p. 20 mg/kg, 5 weeks): remarkably reduced
Pgc-1α and Pgc-1β expression in liver, white and brown adipose tissues (DIO mice): significantly reduced
hepatic mRNA levels of SREBP target genes (DIO mice): reduced
liver mRNA levels of Lxra [1]: decreased
liver mRNA levels of Pparα, Pparγ and Rxrα [1]: little effect
hepatic mRNA levels of Srebp-1a, 1c and 2 (DIO mice, i.p. 5 weeks): significantly decreased
relative mRNA levels SREBP1a, group mean (Mean 2) (APC 10mg/kg): 0.6192
relative mRNA levels SREBP2, group mean (Mean 2) (APC 10mg/kg): 0.7198
relative mRNA levels SREBP1c, group mean (Mean 2) (APC 10mg/kg): 0.5199
relative mRNA levels Srebf-1a [2]: 0.7632 and 0.606 and 0.6752 and 0.5408 and 0.5316 and 0.5987
relative mRNA levels Srebf-1c [2]: 0.3899 and 0.7333 and 0.3575 and 0.4477 and 0.6292 and 0.5618
relative mRNA levels Srebf-2 [2]: 0.89 and 0.7028 and 0.7151 and 0.6142 and 0.6241 and 0.7725
relative mRNA levels SREBP1a, group mean (Mean 2) (APC 20mg/kg): 0.576
relative mRNA levels SREBP2, group mean (Mean 2) (APC 20mg/kg): 0.6534
relative mRNA levels SREBP1c, group mean (Mean 2) (APC 20mg/kg): 0.4898
relative mRNA levels Srebf-1a [3]: 0.7402 and 0.4743 and 0.5973 and 0.6221 and 0.5888 and 0.4336
relative mRNA levels Srebf-1c [3]: 0.4905 and 0.5691 and 0.5139 and 0.3623 and 0.4504 and 0.5527
relative mRNA levels Srebf-2 [3]: 0.7803 and 0.8192 and 0.5739 and 0.6729 and 0.5114 and 0.5627
mRNA levels Pgc-1a, Mean of APC (Figure 6c, liver of DIO mice, group mean, Mean of VEH 0.9497): 0.7169
mRNA levels Hmgcs, Mean of APC (Figure 6c, liver of DIO mice, group mean, Mean of VEH 0.9581): 0.6963
mRNA levels Pgc-1b, Mean of APC (Figure 6c, liver of DIO mice, group mean, Mean of VEH 0.9596): 0.6511
mRNA levels Acl, Mean of APC (Figure 6c, liver of DIO mice, group mean, Mean of VEH 0.9821): 0.5548
mRNA levels Insig1, Mean of APC (Figure 6c, liver of DIO mice, group mean, Mean of VEH 0.983): 1.256
mRNA levels Ldlr, Mean of APC (Figure 6c, liver of DIO mice, group mean, Mean of VEH 0.9914): 0.5526
mRNA levels ApoE, Mean of APC (Figure 6c, liver of DIO mice, group mean, Mean of VEH 0.9918): 0.7552
mRNA levels Acsl1, Mean of APC (Figure 6c, liver of DIO mice, group mean, Mean of VEH 0.995): 0.6996
mRNA levels Insig2b, Mean of APC (Figure 6c, liver of DIO mice, group mean, Mean of VEH 1.003): 1.315
mRNA levels Lxra, Mean of APC (Figure 6c, liver of DIO mice, group mean, Mean of VEH 1.007): 0.5396
mRNA levels Cel, Mean of APC (Figure 6c, liver of DIO mice, group mean, Mean of VEH 1.031): 2.279
mRNA levels Acc, Mean of APC (Figure 6c, liver of DIO mice, group mean, Mean of VEH 1.033): 0.6639
mRNA levels Pcsk9, Mean of APC (Figure 6c, liver of DIO mice, group mean, Mean of VEH 1.034): 0.8062
mRNA levels Cpt1, Mean of APC (Figure 6c, liver of DIO mice, group mean, Mean of VEH 1.037): 2.106
mRNA levels Mttp, Mean of APC (Figure 6c, liver of DIO mice, group mean, Mean of VEH 1.041): 0.553
mRNA levels Scd1, Mean of APC (Figure 6c, liver of DIO mice, group mean, Mean of VEH 1.044): 1.532
mRNA levels Lipg, Mean of APC (Figure 6c, liver of DIO mice, group mean, Mean of VEH 1.051): 1.548
mRNA levels ApoB, Mean of APC (Figure 6c, liver of DIO mice, group mean, Mean of VEH 1.052): 0.8089
mRNA levels Hmgcl, Mean of APC (Figure 6c, liver of DIO mice, group mean, Mean of VEH 1.059): 0.5112
mRNA levels Scap, Mean of APC (Figure 6c, liver of DIO mice, group mean, Mean of VEH 1.06): 0.7595
mRNA levels Mgll, Mean of APC (Figure 6c, liver of DIO mice, group mean, Mean of VEH 1.072): 1.87
mRNA levels Fasn, Mean of APC (Figure 6c, liver of DIO mice, group mean, Mean of VEH 1.142): 0.5649
mRNA levels Acc [4]: 0.6012 and 0.6553 (2×) and 0.7255 and 0.7608 and 0.5855
mRNA levels Acl [4]: 0.303 and 0.3204 and 0.7174 and 0.7065 and 0.7574 and 0.524
mRNA levels Acsl1 [4]: 0.5351 and 0.5673 and 0.8699 and 0.7501 and 0.6417 and 0.8334
mRNA levels ApoB [4]: 0.8489 and 0.8438 and 0.8351 and 0.7306 and 0.803 and 0.7922
mRNA levels ApoE [4]: 0.7234 and 0.6714 and 0.8902 and 0.7927 and 0.794 and 0.6594
mRNA levels Cel [4]: 1.61 and 1.758 and 2.648 and 2.653 and 2.573 and 2.434
mRNA levels Cpt1 [4]: 2.1427 and 2.6 and 2.578 and 1.766 and 1.996 and 1.554
mRNA levels Fasn [4]: 0.5582 and 0.6145 and 0.8825 and 0.8943 and 0.221 and 0.219
mRNA levels Hmgcl [4]: 0.8031 and 0.3302 and 0.7226 and 0.5347 and 0.468 and 0.2089
mRNA levels Hmgcs [4]: 0.6002 and 0.7721 and 0.6122 and 0.7412 and 0.7304 and 0.7219
mRNA levels Insig1 [4]: 1.154 and 1.297 and 1.198 and 1.324 and 1.22 and 1.341
mRNA levels Insig2b [4]: 1.5012 and 1.204 and 1.275 and 1.326 and 1.226 and 1.358
mRNA levels Ldlr [4]: 0.5776 and 0.5891 and 0.5493 and 0.4914 and 0.6354 and 0.4723
mRNA levels Lipg [4]: 1.701 and 1.759 and 1.656 and 1.597 and 1.253 and 1.321
mRNA levels Lxra [4]: 0.4169 and 0.5629 and 0.5095 and 0.7537 and 0.4614 and 0.533
mRNA levels Mgll [4]: 1.478 and 2.215 and 1.692 and 2.155 and 1.663 and 2.019
mRNA levels Mttp [4]: 0.5875 and 0.5564 and 0.479 and 0.4246 and 0.6126 and 0.6576
mRNA levels Pcsk9 [4]: 0.8854 and 0.7972 and 0.6933 and 0.8757 and 0.803 and 0.7825
mRNA levels Pgc-1a [4]: 0.841 and 0.8137 and 0.7443 and 0.6176 and 0.7797 and 0.5053
mRNA levels Pgc-1b [4]: 0.6848 and 0.6024 and 0.8301 and 0.5369 and 0.6396 and 0.6129
mRNA levels Scap [4]: 0.7134 and 0.6924 and 0.8986 and 0.7526 and 0.8965 and 0.6035
mRNA levels Scd1 [4]: 1.593 and 1.385 and 1.755 and 1.2873 and 1.57 and 1.603
relative mRNA levels Cpt1, Difference (Mean of VEH - Mean of APC) (Figure 6e): -0.4965
relative mRNA levels Glut4, Difference (Mean of VEH - Mean of APC) (Figure 6e): -0.8396
relative mRNA levels Hsl, Difference (Mean of VEH - Mean of APC) (Figure 6e): -0.512
relative mRNA levels Mgl1, Difference (Mean of VEH - Mean of APC) (Figure 6e): -0.489
relative mRNA levels Pgc-1α, Difference (Mean of VEH - Mean of APC) (Figure 6e): 0.4001
relative mRNA levels Pgc-1β, Difference (Mean of VEH - Mean of APC) (Figure 6e): 0.2648
relative mRNA levels Scd1, Difference (Mean of VEH - Mean of APC) (Figure 6e): 0.2529
relative mRNA levels Ucp1, Difference (Mean of VEH - Mean of APC) (Figure 6e): 0.6029
relative mRNA levels Ucp2, Difference (Mean of VEH - Mean of APC) (Figure 6e): -0.7752
relative mRNA levels Ucp3, Difference (Mean of VEH - Mean of APC) (Figure 6e): -0.7811
mRNA levels Rxrα, Mean of APC (Figure 6e, BAT genes in DIO, group mean, Mean of VEH 1.022): 0.997
mRNA levels Pparγ, Mean of APC (Figure 6e, BAT genes in DIO, group mean, Mean of VEH 1.045): 1.136
mRNA levels Pparα, Mean of APC (Figure 6e, BAT genes in DIO, group mean, Mean of VEH 1.047): 1.002
mRNA levels Srebf-1c, Mean of APC (Figure 6e, BAT genes in DIO, group mean, Mean of VEH 1.079): 0.67
mRNA levels Cpt1 [5]: 1.405 and 1.301 and 1.366 and 1.861 and 1.273 and 1.67
mRNA levels Glut4 [5]: 2.222 and 2.223 and 2.091 and 1.366 and 1.861 and 1.914
mRNA levels Hsl [5]: 1.929 and 1.285 and 1.044 and 1.492 and 1.691 and 1.784
mRNA levels Mgl1 [5]: 1.571 and 1.671 and 1.448 and 1.19 and 1.394 and 1.429
mRNA levels Pgc-1a [5]: 0.4882 and 0.6962 and 0.7342 and 0.6823 and 0.3242 and 0.5895
mRNA levels Pgc-1b [5]: 0.7936 and 0.7877 and 0.8205 and 0.6233 and 0.5976 and 0.7915
mRNA levels Ppara [5]: 0.957 and 1.069 and 1.282 and 0.4348 and 0.8215 and 1.448
mRNA levels Pparg [5]: 1.223 and 1.057 and 1.279 and 0.9002 and 1.182 and 1.178
mRNA levels Rxra [5]: 1.299 and 0.7585 and 0.6344 and 1.152 and 1.145 and 0.9935
mRNA levels Scd1 [5]: 0.7542 and 0.5583 and 0.6317 and 0.6691 and 0.5321 and 0.7971
mRNA levels Srebf1 [5]: 0.76 and 0.6196 and 0.6214 and 0.595 and 0.7194 and 0.7042
mRNA levels Ucp1 [5]: 0.4272 and 0.4661 and 0.4353 and 0.3244 and 0.4398 and 0.6531
mRNA levels Ucp2 [5]: 1.948 and 2.049 and 1.871 and 1.366 and 1.861 and 1.31
mRNA levels Ucp3 [5]: 2.385 and 1.61 and 1.317 and 1.964 and 1.366 and 1.861
relative mRNA levels Cpt1, Mean of APC [6]: 1.479
relative mRNA levels Glut4, Mean of APC [6]: 1.946
relative mRNA levels Hsl, Mean of APC [6]: 1.538
relative mRNA levels Mgl1, Mean of APC [6]: 1.451
relative mRNA levels Pgc-1α, Mean of APC [6]: 0.5858
relative mRNA levels Pgc-1β, Mean of APC [6]: 0.7357
relative mRNA levels Scd1, Mean of APC [6]: 0.6571
relative mRNA levels Ucp1, Mean of APC [6]: 0.4576
relative mRNA levels Ucp2, Mean of APC [6]: 1.734
relative mRNA levels Ucp3, Mean of APC [6]: 1.751
mRNA of Srebf-1c, Mean Diff. APC - VEH [7]: 0.1559
mRNA of Srebf-2, Mean Diff. APC - VEH [7]: -0.03887
mRNA of Srebf-1c, Mean 1 (APC) [8]: 0.6887
mRNA of Srebf-2, Mean 1 (APC) [8]: 0.7827
